According to paper doi:10.1101/2024.08.25.609621 (bioRxiv, 2024):
In brackets after ≈: the same amount, converted by molar mass. Several values for one entry are separate records, joined by “and”; a condition that tells them apart may be missing. Equal entries are not always repeated. Where two headings read alike, the source gives them in different places.

How the values were obtained:
[1] = target: SARS-CoV-2 NSP3 macrodomain (Mac1) (Severe acute respiratory syndrome coronavirus 2, UniProt P0DTD1); test: biochemical; assay type: binding
[2] = target: SARS-CoV-2 NSP3 macrodomain (Mac1), P43 crystal form (Severe acute respiratory syndrome coronavirus 2, UniProt P0DTD1); assay type: binding; conditions: for 1-BDC: PanDDA background density correction; for Total number of conformations: ligand conformations modeled in Mac1 crystal structure; for 2*(1-BDC) (%): occupancy estimate from PanDDA 1-BDC
Kinetic solubility = conditions: phosphate buffered saline, pH 7.4, aqueous buffer, kinetic from dmso stock
human macrodomain Targ1 = target: T1, human macrodomain Targ1 (Homo sapiens, UniProt Q9Y530); test: HTRF peptide displacement assay, Targ1; assay type: binding; conditions: for IC50: dose-response; for binding to the human macrodomain Targ1: in words
T1 sequence (Q9Y530 with tags, fused parts or gaps): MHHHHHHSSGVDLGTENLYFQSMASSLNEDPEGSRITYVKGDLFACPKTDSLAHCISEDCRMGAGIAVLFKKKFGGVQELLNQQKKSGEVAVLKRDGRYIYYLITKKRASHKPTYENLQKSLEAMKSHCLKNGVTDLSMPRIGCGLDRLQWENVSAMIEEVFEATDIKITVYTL

[3] = target: T2, human macrodomain MacroD2 (Homo sapiens, UniProt A1Z1Q3); test: HTRF peptide displacement assay, MacroD2; assay type: binding; conditions: for IC50: dose-response; for binding to the human macrodomain MacroD2: in words
T2 sequence (A1Z1Q3 with tags, fused parts or gaps): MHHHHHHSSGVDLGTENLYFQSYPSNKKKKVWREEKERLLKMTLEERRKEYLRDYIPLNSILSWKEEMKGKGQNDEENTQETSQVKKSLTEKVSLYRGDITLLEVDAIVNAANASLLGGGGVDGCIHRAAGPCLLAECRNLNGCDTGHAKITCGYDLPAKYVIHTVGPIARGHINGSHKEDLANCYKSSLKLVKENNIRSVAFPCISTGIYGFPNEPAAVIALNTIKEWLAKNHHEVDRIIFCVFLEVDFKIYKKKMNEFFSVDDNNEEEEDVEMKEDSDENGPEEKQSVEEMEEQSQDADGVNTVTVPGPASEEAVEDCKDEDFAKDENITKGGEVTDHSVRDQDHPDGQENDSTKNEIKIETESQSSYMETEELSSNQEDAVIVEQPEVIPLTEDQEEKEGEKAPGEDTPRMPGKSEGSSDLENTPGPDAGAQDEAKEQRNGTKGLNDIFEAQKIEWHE

in vitro = conditions: human; for Papp A→B at 1 h / Papp B→A at 1 h: Caco-2
Experimental: (§1) Caco-2 cell plates were obtained commercially and were maintained for 21 days at 37°C with 5% CO2. Cells were washed with Hank’s Balanced Salt Solution (HBSS) with 5 mM HEPES for 30 minutes before starting the experiment. Test compound solutions are prepared by diluting DMSO stock into HBSS buffer, resulting in a final DMSO concentration of 0.1%. Prior to the assay, cell monolayer integrity was verified by […] electrical resistance (TEER) to ensure that wells have resistance above the acceptance cut-off (1 kΩ). Transport experiments were initiated by adding test compounds to the apical (75 μl) or basal (250 μl) side. Transport plates were incubated at 37°C in a humidified incubator with 5% CO2. Samples were taken from the donor and acceptor compartments after one hour and analyzed by liquid chromatography with tandem mass spectrometry (LC/MS/MS) using an AB Sciex API 4000 instrument, coupled to a Shimadzu LC-20AD LC Pump system. Samples were separated using a Waters Atlantis T3 dC18 reverse phase HPLC column (20 mm × 2.1 mm) at a flow rate of 0.5 ml/min. The mobile phase consisted of 0.1% formic acid in acetonitrile (solvent A) and 0.1% formic acid in water (solvent B).
(§2) Apparent permeability (Papp) values were calculated using the following equation: Papp=(dQ/dt)/A/C0 where dQ/dt is the initial rate of compound transport across the cell monolayer, A is the surface area of the filter membrane, and C0 is the initial concentration of the test compound, calculated for each direction using a four-point calibration curve by LC/MS/MS.
(§3) Net flux ratio between the two directional transports was calculated by the following equation: Ratio=PappB-A/PappA-B where PappB-A and PappA-B represent the apparent permeability of compounds from the basal-to-apical and apical-to-basal side of the cellular monolayer, respectively. Recovery was calculated based on the compound concentration at the end of the experiment, compared to that at the beginning of the experiment, adjusted for volumes.

Caco-2 cells = test: in vitro; conditions: human, Caco-2, 1 h
Experimental: as §1, §2, §3

Microsomal stability = assay type: in vitro ADME, mouse; conditions: pH 7.4
Experimental: The assay was carried out in 96-well plates at 37°C. Reaction mixtures (25 μl) contained a final concentration of 1 μM compound, 0.5 mg/ml liver microsomes protein, and 1 mM NADPH and/or 1 mM UDPGA (with alamethicin) in 100 mM potassium phosphate (pH 7.4) with 3 mM MgCl2. After 0, 15, 30, and 60 minutes, 150 μl of quench solution (100% acetonitrile with 0.1% formic acid) with internal standard was transferred to each well. Reactions containing the same components except the NADPH were prepared as the negative control. Plates were sealed, vortexed, and centrifuged at 4°C for 15 minutes at 4000 rpm.
The extent of metabolism was calculated as the disappearance of compounds, compared to the 0-min time incubation.

[4] = preliminary screen, compound at 200 μM, mean of 3-4 technical replicates, read-out: % competition in HTRF assay
[5] = Caco-2, Caco-2 ratio B-A/A-B, net flux ratio
[6] = crystal soak 10 mM, P43 crystals

| Structure (SMILES) | Hill slope ([1]; HTRF dose-response fit, Mac1) | inhibition at 200 µM [1, 4] | 1-BDC [2] | Total number of conformations [2] | 2*(1-BDC) (%) [2] | solubility kinetic at […] (Kinetic solubility) | binding to the human macrodomain Targ1 (human macrodomain Targ1) | binding to the human macrodomain MacroD2 [3] | Papp A→B at 1 h (in vitro) | Papp B→A at 1 h (in vitro) | efflux ratio at 1 h (in vitro; [5]) | efflux ratio at 1 h (in vitro; Caco-2, Ratio (B-A/A-B)) | Recover Rate (%) (Caco-2 cells) | half-life at 1 µM (Microsomal stability; mouse, microsomes) | microsomal CLint at 1 µM (Microsomal stability; mouse, microsomes) | further results |
| --- | --- | --- | --- | --- | --- | --- | --- | --- | --- | --- | --- | --- | --- | --- | --- | --- |
| CC(C)(O)[C@H]1CCCN1c1ncnc2[nH]ccc12 [AVI-607, 2-[(2R)-1-{7H-Pyrrolo[2,3-d]pyrimidin-4-yl}pyrrolidin-2-yl]propan-2-ol] | 1.5 | 100% | 0.44 | 1 | 88% | 518 µM (≈ 128 µg/mL) | none | none | 22 ×10⁻⁶ cm/s | 15.7 ×10⁻⁶ cm/s | 0.7 | 0.71 | 93% | 19 min | 73 µL/min/mg | inhibition at 200 µM ([1]; Single dose, concentration 200 μM, read-out: SARS CoV-2 macrodomain HTRF assay: Average % competition): 100%; SARS CoV-2 macrodomain HTRF assay: Hillslope ([1]; dose-response fit): 1.5; Pandda run, overall: Modeling comment ([2]; crystal soak, soak concentration 10 mM): High occupancy, use manual refinement; Pandda run, overall: Hit ([2]; crystal soak, soak concentration 10 mM, TRUE = ligand hit): TRUE; X-ray crystallography: Binding site ([2]; site where the ligand is bound in the X-ray crystal structure): Adenosine; PanDDA run, DMSO background map: 1-BDC ([2]; soak concentration 10 mM): 0.42 and 0.44; PanDDA run, DMSO background map: Hit ([2]; soak concentration 10 mM): TRUE; IC50 (human macrodomain Targ1; read-out: Human Targ1 HTRF assay: IC50): > 1000 µM; IC50 ([3]; read-out: Human MacroD2 HTRF assay: IC50): > 1000 µM; microsomal CLint at 1 µM (Microsomal stability; liver microsomes, mouse microsomes, read-out: CLint (mouse) (µl/min/mg protein), mean): 73 µL/min/mg |
| CC(c1ccccc1)C(CO)Nc1ncnc2[nH]ccc12 (stereo not drawn) [AVI-3669] | 1.2 | 98% | 0.14 | 1 | 28% | 529 µM (≈ 149 µg/mL) | none | none | 19.4 ×10⁻⁶ cm/s | 14.5 ×10⁻⁶ cm/s | 0.7 | 0.75 | 93% | 8.3 min | 166 µL/min/mg | Hill slope ([1]; SARS CoV-2 macrodomain HTRF assay, dose-response): 1.2; inhibition at 200 µM ([1]; Single dose, concentration 200 μM, read-out: Average % competition): 98%; X-ray crystal structure ([2]; X-ray crystal structure determined (TRUE)): TRUE; Pandda run, overall: Hit [2, 6]: TRUE; Pandda run, overall: Modeled [2, 6]: TRUE; PanDDA run, DMSO background map: 1-BDC ([2]; crystal soak 10 mM): 0.14; PanDDA run, DMSO background map: Hit ([2]; crystal soak 10 mM): TRUE; Binding site ([2]; site of ligand in X-ray crystal structure): Adenosine; IC50 (human macrodomain Targ1; Human Targ1 HTRF assay, read-out: IC50): > 1000 µM; IC50 ([3]; Human MacroD2 HTRF assay, read-out: IC50): > 1000 µM; microsomal CLint at 1 µM (Microsomal stability; liver microsomes, mouse microsome stability, read-out: CLint (mouse) (µl/min/mg protein), mean): 166 µL/min/mg |
